Results as given in PubChem BioAssay (NCI).
Values joined by “and” are separate entries in the source; they are usually repeats but may differ in a detail not shown here. Equal values may be shown once.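 Where inhibition never reached the appropriate level, the endpoint shown equals the highest concentration tested. Otherwise, values were interpolated linearly from a five-concentration, 48-hour dose response in 96-well plates. Here, GI50 denotes the concentration required for 50% inhibition of growth. At the TGI there is no net growth.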

Columns and labels:
Experiment in all cases: NCI tumour cell line growth inhibition, 48 h
NCI-H226 lung = system: NCI-H226 lung
UACC-257 melanoma = system: UACC-257 melanoma
DMS 114 small cell lung = system: DMS 114 small cell lung
KM12 colon = system: KM12 colon
SN12K1 renal = system: SN12K1 renal
SN12C renal = system: SN12C renal
T-47D breast = system: T-47D breast
RXF 393 renal = system: RXF 393 renal
SNB-19 CNS = system: SNB-19 CNS
EKVX NSCLC = system: EKVX NSCLC
MDA-MB-231 breast = system: MDA-MB-231 breast
SF-268 CNS = system: SF-268 CNS
MCF7 breast = system: MCF7 breast
SNB-78 CNS = system: SNB-78 CNS
KM20L2 colon = system: KM20L2 colon
BT-549 breast = system: BT-549 breast
HCC-2998 colon = system: HCC-2998 colon
M14 melanoma = system: M14 melanoma
DLD-1 colon = system: DLD-1 colon
NCI-H460 lung = system: NCI-H460 lung
M19-MEL melanoma = system: M19-MEL melanoma
OVCAR-8 ovarian = system: OVCAR-8 ovarian
MALME-3M melanoma = system: MALME-3M melanoma
NCI-H23 lung = system: NCI-H23 lung
NCI/ADR-RES ovarian = system: NCI/ADR-RES ovarian
SR leukemia = system: SR leukemia
U251 CNS = system: U251 CNS
OVCAR-3 ovarian = system: OVCAR-3 ovarian
IGROV1 ovarian = system: IGROV1 ovarian
K-562 leukemia = system: K-562 leukemia
ACHN renal = system: ACHN renal
UACC-62 melanoma = system: UACC-62 melanoma
NCI-H522 lung = system: NCI-H522 lung
HOP-92 NSCLC = system: HOP-92 NSCLC
HL-60(TB) leukemia = system: HL-60(TB) leukemia
COLO 205 colon = system: COLO 205 colon
MOLT-4 leukemia = system: MOLT-4 leukemia
OVCAR-5 ovarian = system: OVCAR-5 ovarian
SF-295 CNS = system: SF-295 CNS
RPMI-8226 leukemia = system: RPMI-8226 leukemia
DU-145 prostate = system: DU-145 prostate
SK-MEL-5 melanoma = system: SK-MEL-5 melanoma
PC-3 prostate = system: PC-3 prostate
DMS 273 small cell lung = system: DMS 273 small cell lung
MDA-MB-435 = system: MDA-MB-435
786-0 renal = system: 786-0 renal
MDA-N = system: MDA-N
P388/ADR leukemia = system: P388/ADR leukemia
XF 498 CNS = system: XF 498 CNS
HCT-15 colon = system: HCT-15 colon
LXFL 529 NSCLC = system: LXFL 529 NSCLC
SK-OV-3 ovarian = system: SK-OV-3 ovarian
SK-MEL-28 melanoma = system: SK-MEL-28 melanoma
P388 leukemia = system: P388 leukemia
A498 renal = system: A498 renal
TK-10 renal = system: TK-10 renal
HT29 colon = system: HT29 colon
OVCAR-4 ovarian = system: OVCAR-4 ovarian
CAKI-1 renal = system: CAKI-1 renal
LOX IMVI melanoma = system: LOX IMVI melanoma
HS 578T breast = system: HS 578T breast
SK-MEL-2 melanoma = system: SK-MEL-2 melanoma
HOP-18 NSCLC = system: HOP-18 NSCLC
SW-620 colon = system: SW-620 colon
A549 NSCLC = system: A549 NSCLC
UO-31 renal = system: UO-31 renal

CN(Cc1cnc2nc(N)nc(N)c2n1)c1ccc(C(=O)N[C@@H](CCC(=O)O)C(=O)O)cc1
TGI (NCI-H226 lung): 242 µM and > 250 µM
GI50 (UACC-257 melanoma): 1.89 µM
TGI (UACC-257 melanoma): > 237 µM
TGI (DMS 114 small cell lung): 191 µM
TGI (KM12 colon): 239 µM and > 250 µM
TGI (SN12K1 renal): 191 µM
TGI (SN12C renal): 181 µM and > 250 µM
TGI (T-47D breast): > 250 µM
TGI (RXF 393 renal): 215 µM and > 250 µM
TGI (SNB-19 CNS): 211 µM and > 250 µM
TGI (EKVX NSCLC): > 250 µM
TGI (MDA-MB-231 breast): > 250 µM
TGI (SF-268 CNS): 206 µM and > 250 µM
TGI (MCF7 breast): > 250 µM
TGI (SNB-78 CNS): 213 µM
GI50 (KM20L2 colon): 0.0025 µM
TGI (KM20L2 colon): > 250 µM
TGI (BT-549 breast): > 250 µM
TGI (HCC-2998 colon): 191 µM and > 250 µM
TGI (M14 melanoma): 240 µM and > 250 µM
TGI (DLD-1 colon): > 250 µM
GI50 (NCI-H460 lung): 0.00707 µM
TGI (NCI-H460 lung): > 245 µM
TGI (M19-MEL melanoma): > 250 µM
GI50 (OVCAR-8 ovarian): 0.0703 µM and 0.488 µM
TGI (OVCAR-8 ovarian): > 250 µM
TGI (MALME-3M melanoma): > 250 µM
TGI (NCI-H23 lung): 117 µM
TGI (NCI/ADR-RES ovarian): > 250 µM
TGI (SR leukemia): 194 µM
TGI (U251 CNS): > 250 µM
TGI (OVCAR-3 ovarian): 217 µM and > 250 µM
TGI (IGROV1 ovarian): 212 µM and > 250 µM
TGI (K-562 leukemia): 206 µM and > 250 µM
TGI (ACHN renal): > 233 µM
TGI (UACC-62 melanoma): 41.4 µM and > 250 µM
TGI (NCI-H522 lung): 155 µM and > 250 µM
TGI (HOP-92 NSCLC): 229 µM and > 250 µM
GI50 (HL-60(TB) leukemia): 0.0259 µM
TGI (HL-60(TB) leukemia): 178 µM
TGI (COLO 205 colon): 249 µM and > 250 µM
GI50 (MOLT-4 leukemia): 0.0278 µM
TGI (MOLT-4 leukemia): 159 µM
TGI (OVCAR-5 ovarian): 207 µM and > 250 µM
TGI (SF-295 CNS): 231 µM and > 250 µM
TGI (RPMI-8226 leukemia): > 250 µM
TGI (DU-145 prostate): > 250 µM
TGI (SK-MEL-5 melanoma): 179 µM and > 250 µM
TGI (PC-3 prostate): > 250 µM
TGI (DMS 273 small cell lung): 210 µM
GI50 (MDA-MB-435): 0.0672 µM and 0.0441 µM
TGI (MDA-MB-435): > 250 µM
TGI (786-0 renal): > 250 µM
GI50 (MDA-N): 0.0289 µM and 0.0122 µM
TGI (MDA-N): > 250 µM
TGI (P388/ADR leukemia): 29.4 µM
TGI (XF 498 CNS): 184 µM
TGI (HCT-15 colon): > 250 µM
TGI (LXFL 529 NSCLC): > 250 µM
TGI (SK-OV-3 ovarian): > 250 µM
GI50 (SK-MEL-28 melanoma): 3.27 µM
TGI (SK-MEL-28 melanoma): > 250 µM
TGI (P388 leukemia): 13.8 µM
GI50 (A498 renal): 1.05 µM
TGI (A498 renal): 116 µM
TGI (TK-10 renal): 230 µM and > 250 µM
TGI (HT29 colon): 240 µM and > 250 µM
TGI (OVCAR-4 ovarian): 238 µM and > 250 µM
TGI (CAKI-1 renal): 200 µM and > 250 µM
TGI (LOX IMVI melanoma): > 250 µM
TGI (HS 578T breast): > 250 µM
TGI (SK-MEL-2 melanoma): > 250 µM
GI50 (HOP-18 NSCLC): 0.714 pM
TGI (SW-620 colon): 221 µM and > 250 µM
TGI (A549 NSCLC): > 250 µM
GI50 (UO-31 renal): 0.0454 µM
TGI (UO-31 renal): 148 µM
